# From patent US12624009B2, “Hydrate of VEGFR inhibitor, crystal form thereof and preparation method therefor” (CHENGDU EASTON BIOPHARMACEUTICALS CO., LTD, priority 2023, dated 2026)
# Legend:
# Type in all cases: physicochemical
# [1] = Storage stability investigation of crystal forms of fruquintinib (crystal form after storage); settings: for crystal form stability under the conditions investigated: 25° C./RH60% and 40° C./RH75%, storage up to 6 months (FIG. 4, 5A, 5B)
# [2] = Stability of crystal forms suspended and stirred in water, solids characterised by XRD; settings: for crystal form stability in water: 25° C. and 37° C., 5 h and 24 h, compared with crystal forms I, II, III, VII, IV, VIII and C
# Excerpt: The solids were filtered and subjected to XRD characterization.
# [3] = Grinding in planetary ball mill, XRD compared with simulated single-crystal pattern; settings: 60 HZ, about 30 s
# Excerpt: The XRD pattern after grinding was substantially consistent with FIG. 1B.
Compound,crystal form stability under the conditions investigated [1],"Crystal form after storage ([1]; 25° C./RH60%, 6 months)","Crystal form after storage ([1]; 40° C./RH75%, 6 months)",Suspending and stirring for 5 h Crystal form ([2]; 25° C.),Suspending and stirring for 24 h Crystal form ([2]; 25° C.),Suspending and stirring for 5 h Crystal form ([2]; 37° C.),Suspending and stirring for 24 h Crystal form ([2]; 37° C.),"Crystal form after storage ([1]; 25° C./RH60%, 2 months)","Crystal form after storage ([1]; 40° C./RH75%, 2 months)",polymorphic transition after grinding [3],crystal form stability in water [2],crystal form stability in water ([2]; listed as crystal form α of fruquintinib)
"CNC(=O)c1c(C)oc2cc(Oc3ncnc4cc(OC)c(OC)cc34)ccc12 [Crystal form α (after grinding), 6-(6,7-dimethoxyquinazolin-4-yl-oxy)-N,2-dimethylbenzofuran-3-carboxamide]",good crystal form stability,Crystal form α,Crystal form α,,,,,,,,,
"CNC(=O)c1c(C)oc2cc(Oc3ncnc4cc(OC)c(OC)cc34)ccc12 [Crystal form VIII, 6-(6,7-dimethoxyquinazolin-4-yl-oxy)-N,2-dimethylbenzofuran-3-carboxamide]",,,,Crystal form α,Crystal form α,Crystal form α,Crystal form α,,,,,
"CNC(=O)c1c(C)oc2cc(Oc3ncnc4cc(OC)c(OC)cc34)ccc12 [Crystal form II, 6-(6,7-dimethoxyquinazolin-4-yl-oxy)-N,2-dimethylbenzofuran-3-carboxamide]",,,,Crystal form α,Crystal form α,Crystal form α,Crystal form α,,,,,
"CNC(=O)c1c(C)oc2cc(Oc3ncnc4cc(OC)c(OC)cc34)ccc12 [Crystal form I, 6-(6,7-dimethoxyquinazolin-4-yl-oxy)-N,2-dimethylbenzofuran-3-carboxamide]",,,,Crystal form I,,Crystal form I,,,,,,
"CNC(=O)c1c(C)oc2cc(Oc3ncnc4cc(OC)c(OC)cc34)ccc12 [Crystal form C, 6-(6,7-dimethoxyquinazolin-4-yl-oxy)-N,2-dimethylbenzofuran-3-carboxamide]",,,,Crystal form α,Crystal form α,Crystal form α,Crystal form α,,,,,
"CNC(=O)c1c(C)oc2cc(Oc3ncnc4cc(OC)c(OC)cc34)ccc12 [Crystal form VII, 6-(6,7-dimethoxyquinazolin-4-yl-oxy)-N,2-dimethylbenzofuran-3-carboxamide]",,,,Crystal form α,Crystal form α,Crystal form α,Crystal form α,,,,,

# Continued, values first:
crystal form stability under the conditions investigated [1],"Crystal form after storage ([1]; 25° C./RH60%, 6 months)","Crystal form after storage ([1]; 40° C./RH75%, 6 months)",Suspending and stirring for 5 h Crystal form ([2]; 25° C.),Suspending and stirring for 24 h Crystal form ([2]; 25° C.),Suspending and stirring for 5 h Crystal form ([2]; 37° C.),Suspending and stirring for 24 h Crystal form ([2]; 37° C.),"Crystal form after storage ([1]; 25° C./RH60%, 2 months)","Crystal form after storage ([1]; 40° C./RH75%, 2 months)",polymorphic transition after grinding [3],crystal form stability in water [2],crystal form stability in water ([2]; listed as crystal form α of fruquintinib),Compound
,,,Crystal form α,Crystal form α,Crystal form α,Crystal form α,,,,,,"CNC(=O)c1c(C)oc2cc(Oc3ncnc4cc(OC)c(OC)cc34)ccc12 [Crystal form IV, 6-(6,7-dimethoxyquinazolin-4-yl-oxy)-N,2-dimethylbenzofuran-3-carboxamide]"
good crystal form stability,Crystal form α,Crystal form α,Crystal form α,Crystal form α,Crystal form α,Crystal form α,Crystal form α,Crystal form α,did not undergo polymorphic transition,good stability in water,better crystal form stability,"CNC(=O)c1c(C)oc2cc(Oc3ncnc4cc(OC)c(OC)cc34)ccc12 [Crystal form α, 6-(6,7-dimethoxyquinazolin-4-yl-oxy)-N,2-dimethylbenzofuran-3-carboxamide]"
,,,Crystal form α,Crystal form α,Crystal form α,Crystal form α,,,,,,"CNC(=O)c1c(C)oc2cc(Oc3ncnc4cc(OC)c(OC)cc34)ccc12 [Crystal form α + crystal form I, 6-(6,7-dimethoxyquinazolin-4-yl-oxy)-N,2-dimethylbenzofuran-3-carboxamide]"
,,,Crystal form α,Crystal form α,Crystal form α,Crystal form α,,,,,,"CNC(=O)c1c(C)oc2cc(Oc3ncnc4cc(OC)c(OC)cc34)ccc12 [Crystal form III, 6-(6,7-dimethoxyquinazolin-4-yl-oxy)-N,2-dimethylbenzofuran-3-carboxamide]"
